Reference: patent publication US8604075B2, “Methods and compositions for improving cognitive function” (The Johns Hopkins University, priority 2008, dated 2013)

Key:
aged-impaired (AI) rats = experiment: Radial Arm Maze (RAM) task with one-hour delay, spatial memory retention of aged-impaired rats; assay type: in vivo, rat; conditions: 30-40 minutes before trial, ten AI rats
Experimental: FIG. 3 depicts the effects of administering levetiracetam on the spatial memory retention of ten aged-impaired rats (AI) in an eight-arm Radial Arm Maze (RAM) test. Six treatment conditions were employed: vehicle control, levetiracetam (1.25 mg/kg/day), levetiracetam (2.5 mg/kg/day), levetiracetam (5 mg/kg/day), levetiracetam (10 mg/kg/day) and levetiracetam (20 mg/kg/day). In the RAM task used, there was a one-hour delay between presentation of a subset of arms (5 arms available and 3 arms blocked) and completion of the eight-arm win-shift task (eight arms available). Rats were pre-treated 30-40 minutes before daily trials with a one-time drug/control treatment. The number of errors made by the rats after the delay was used as a measure of spatial memory retention. Errors were defined as instances when rats entered an arm from which food had already been retrieved in the pre-delay component of the trial or when rats re-visited an arm in the post-delay session that had already been visited. […]
The effects of levetiracetam on the spatial memory retention of aged-impaired (AI) rats were assessed in a Radial Arm Maze (RAM) behavioral task using vehicle control and five different dosage levels of levetiracetam (1.25 mg/kg/day, 2.5 mg/kg/day, 5 mg/kg/day, 10 mg/kg/day and 20 mg/kg/day). […]

[1] = tested on: Age-Impaired (AI) Long-Evans rats; experiment: Morris Water Maze (MWM) retention trial, spatial memory of aged-impaired rats; assay type: in vivo, rat; conditions: retention trial 24 hours after last training trial
Experimental: FIG. 2 depicts the effects of administering levetiracetam on the spatial memory retention of six aged-impaired rats (AI) in a Morris Water Maze (MWM) test. Three treatment conditions were employed: vehicle control, levetiracetam (5 mg/kg/day) and levetiracetam (10 mg/kg/day). The AI rats were trained for two consecutive days, with a one-time treatment prior to the training trials per day. 24 hours later, the AI rats were tested. The time the AI rats, 24 hours after treatment with the different conditions and two days of training, spent swimming in the target quadrant or the target annulus in a memory retention trial is used as a measure of spatial memory retention. The target quadrant refers to the quadrant of the maze (which is a circular pool) where the escape platform is placed during the training trials. The target annulus refers to the exact location of the escape platform during the training trials.
The MWM apparatus consists of a large, circular pool (diameter 1.83 m; height, 0.58 m) filled with water (27° C.) that is made opaque through the addition of non-toxic pigment or some other substance. In the typical “hidden platform” version of the test, rats are trained to find a camouflaged white escape platform (height, 34.5 cm) that is positioned in the center of one quadrant of the maze about 1.0 cm below the water surface. This platform can be retracted to the bottom of the tank or raised to its normal position from outside the maze during behavioral testing. The location of the platform remains constant from trial to trial. […] The behavior of a rat in the pool is recorded by a camera that is suspended 2.5 m above the center of the pool. […]
The MWM protocol is optimized for sensitivity to the effects of aging on cognition and for measures of reliable individual differences within the aged population of out-bred Long-Evans rats (Gallagher et al. Behav. Neurosci. 107:618-626, (1993)). […] At the completion of the protocol using the hidden platform, rats are assessed for cue learning using the visible platform. […]

[2] = 100 mg/kg/day, chronic subcutaneous administration; cited from earlier work
[3] = tested on: memory-impaired aged rats; conditions: chronic subcutaneous administration, cited from earlier work

SMILES | average no. of errors ± standard error of the mean (SEM) (aged-impaired (AI) rats; 5 mg/kg/day i.p., vehicle 2.00±0.42, p=0.057) | average no. of errors ± SEM (aged-impaired (AI) rats; 10 mg/kg/day i.p., vehicle 2.00±0.42, p=0.042) | time spent in the target quadrant, performance compared with vehicle ([1]; 5 mg/kg/day i.p.) | time spent in the target annulus ([1]; 10 mg/kg/day i.p.) | time spent in the target quadrant ([1]; 10 mg/kg/day i.p., vehicle approximately 25%) | blood total valproate level [2] [μg/ml plasma] | treatment of age-related cognitive impairment ([3]; 50 mg/kg/day) | performance in a memory test ([3]; 100 mg/kg/day)
CC[C@@H](C(N)=O)N1CCCC1=O [levetiracetam, (2S)-2-(2-oxopyrrolidin-1-yl) butanamide] | 0.75±0.32 | 0.80±0.27 | did not significantly improve | effectivness of the 10 mg/kg/day levetiracetam treatment was also seen | approximately 35 % of total swimming time | – | – | –
CCCC(CCC)C(=O)O [sodium valproate, 2-propylpentanoate] | – | – | – | – | – | 10 | not effective | significantly improved
